Values of other authors, collected in US8846662B2, “Benzodiazepine and/or pharmaceutical composition comprising benzodiazepine derivatives” (Dr. Franz Koehler Chemie GmbH, priority 2008, dated 2014).

Test system: specific binding sites in the central nervous system
Details: background statement

Row | Structure (SMILES) | Affinity for specific binding sites in the central nervous system
1 | O=C1Nc2ccc(Cl)cc2C(c2ccccc2Cl)=NC1O (centres unmarked) [Lorazepam, 7-chloro-5-(o-chlorophenyl)-1,3-dihydro-3-hydroxy-2H-1,4-benzodiazepin-2-one] | very high affinity
2 | CN1C(=O)C(O)N=C(c2ccccc2Cl)c2cc(Cl)ccc21 (centres unmarked) [Lormetazepam, 9-chloro-6-(2-chlorophenyl)-4-hydroxy-2-methyl-2,5-diazabicyclo-[5.4.0]undeca-5,8,10,12-tetraen-3-one] | very high affinity
